Values of other authors as cited in patent US20150209317A1, “Plant Extracts for Improving Cognitive Function” (Kemin Industries, Inc., priority 2014, published 2015).

Key:
[1] = tested on: aging mice; settings: RA administration to aging mice
[2] = subchronic administration (Park 2010)

Catalase (CAT) activity in the brain [1]: increased
Superoxide dismutase (SOD) activity in the brain [1]: increased
Compound: O=C(/C=C/c1ccc(O)c(O)c1)O[C@H](Cc1ccc(O)c(O)c1)C(=O)O [Rosmarinic acid]
Malondialdehyde (MDA) in the brain [1]: decreasing
Memory in the Morris water maze spatial task [2]: improved memory
